For one molecule, melting point, Cytotoxicity and IC50 results are on record in patent publication US6630477B1, “Therapeutic nucleoside compound” (SmithKline Beecham Corporation, priority 1999, dated 2003).

Data set [1] can be described thus: Cytotoxicity (reported with the Hepatitis B virus activity test). It counts as cell-based. As for the experimental part: (§1) The activity of compounds against Hepatitis B Virus was assessed as described in Jansen, R. et al., Antimicrobial Agents and Chemotherapy, Vol. 37, No. 3, pp. 441-447, 1993.
Data set [2] deals with Hepatitis B virus. In words: Hepatitis B Virus Activity (method of Jansen et al. 1993). It counts as cell-based. Particulars: n=2, read-out: IC50 against Hepatitis B virus. As for the experimental part:
as §1

SMILES strings stand for the structures. Bounds are passed on as bounds.

A word on the melting point: it is the temperature of the solid-liquid transition. The IC50 is the point on the concentration scale where inhibition reaches its midpoint. For the molecule `Nc1ncnc2c1ncn2[C@@H]1C=C[C@H](CO)C1` [(+)-(1R,4S)-4-(6-Amino-9H-purin-9-yl)-2-cyclopentene-1-methanol], the melting point was in the range of 195 to 200 °C. In data set [1], the Cytotoxicity is above 200 µM. Moreover, in data set [2], the IC50 stood at 1000 nM.
